Test results reported in ChEMBL document CHEMBL3046521, “Synthesis and antitumor activity of (4-hydroxyphenyl)[5-substituted alkyl/aryl)-2-thioxo-1,3,4-thiadiazol-3-yl]methanone and [(3,4-disubstituted)-1,3-thiazol-2ylidene]-4-hydroxybenzohydrazide” (2011).

Columns and labels:
Type in all cases: functional
MDA-MB-468 = assay: Cytotoxicity against Homo sapiens (human) MDA-MB-468 cells after 48 hr by sulforhodamine B assay; conditions: MDA-MB-468, 48 h
MDA-MB-435 = assay: Cytotoxicity against Homo sapiens (human) MDA-MB-435 cells after 48 hr by sulforhodamine B assay; conditions: MDA-MB-435, 48 h
HOP-62 = assay: Cytotoxicity against Homo sapiens (human) HOP62 cells after 48 hr by sulforhodamine B assay; conditions: HOP-62, 48 h
HOP-92 = assay: Cytotoxicity against Homo sapiens (human) HOP92 cells after 48 hr by sulforhodamine B assay; conditions: HOP-92, 48 h
SK-MEL-5 [1] = assay: Anticancer activity in Homo sapiens (human) SK-MEL-5 cells assessed as cell growth at 10^-5 M after 48 hr by SRB assay; conditions: SK-MEL-5, 48 h, read-out: Activity
HCT-116 = assay: Cytotoxicity against Homo sapiens (human) HCT116 cells after 48 hr by sulforhodamine B assay; conditions: HCT-116, 48 h
HCC 2998 = assay: Cytotoxicity against Homo sapiens (human) HCC2998 cells after 48 hr by sulforhodamine B assay; conditions: HCC 2998, 48 h
BT-549 = assay: Cytotoxicity against Homo sapiens (human) BT549 cells after 48 hr by sulforhodamine B assay; conditions: BT-549, 48 h
PC-3 = assay: Cytotoxicity against Homo sapiens (human) PC3 cells after 48 hr by sulforhodamine B assay; conditions: PC-3, 48 h
Malme-3M = assay: Cytotoxicity against Homo sapiens (human) MALME-3M cells after 48 hr by sulforhodamine B assay
K562 = assay: Cytotoxicity against Homo sapiens (human) K562 cells after 48 hr by sulforhodamine B assay; conditions: K562, 48 h
HT-29 = assay: Cytotoxicity against Homo sapiens (human) HT-29 cells after 48 hr by sulforhodamine B assay; conditions: HT-29, 48 h
SK-MEL-5 [2] = assay: Cytotoxicity against Homo sapiens (human) SK-MEL-5 cells after 48 hr by sulforhodamine B assay; conditions: SK-MEL-5, 48 h
SK-MEL-2 = assay: Cytotoxicity against Homo sapiens (human) SK-MEL-2 cells after 48 hr by sulforhodamine B assay; conditions: SK-MEL-2, 48 h
MCF7 = assay: Cytotoxicity against Homo sapiens (human) MCF7 cells after 48 hr by sulforhodamine B assay; conditions: MCF7, 48 h
MDA-MB-231 = assay: Cytotoxicity against Homo sapiens (human) MDA-MB-231 cells after 48 hr by sulforhodamine B assay; conditions: MDA-MB-231, 48 h
TK-10 = assay: Cytotoxicity against Homo sapiens (human) TK10 cells after 48 hr by sulforhodamine B assay; conditions: TK-10, 48 h
UACC-257 = assay: Cytotoxicity against Homo sapiens (human) UACC257 cells after 48 hr by sulforhodamine B assay; conditions: UACC-257, 48 h
HCT-15 = assay: Cytotoxicity against Homo sapiens (human) HCT15 cells after 48 hr by sulforhodamine B assay; conditions: HCT-15, 48 h
T47D = assay: Cytotoxicity against Homo sapiens (human) T47D cells after 48 hr by sulforhodamine B assay
U-251 = assay: Cytotoxicity against Homo sapiens (human) U251 cells after 48 hr by sulforhodamine B assay; conditions: U-251, 48 h
SW-620 = assay: Cytotoxicity against Homo sapiens (human) SW620 cells after 48 hr by sulforhodamine B assay; conditions: SW-620, 48 h
NCI-H23 = assay: Cytotoxicity against Homo sapiens (human) NCI-H23 cells after 48 hr by sulforhodamine B assay; conditions: NCI-H23, 48 h
NCI-H522 = assay: Cytotoxicity against Homo sapiens (human) NCI-H522 cells after 48 hr by sulforhodamine B assay; conditions: NCI-H522, 48 h
IGROV-1 = assay: Cytotoxicity against Homo sapiens (human) IGROV1 cells after 48 hr by sulforhodamine B assay; conditions: IGROV-1, 48 h
RXF 393 = assay: Cytotoxicity against Homo sapiens (human) RXF393 cells after 48 hr by sulforhodamine B assay; conditions: RXF 393, 48 h
ACHN = assay: Cytotoxicity against Homo sapiens (human) ACHN cells after 48 hr by sulforhodamine B assay
786-0 = assay: Cytotoxicity against Homo sapiens (human) 786-0 cells after 48 hr by sulforhodamine B assay; conditions: 786-0, 48 h
OVCAR-3 = assay: Cytotoxicity against Homo sapiens (human) OVCAR3 cells after 48 hr by sulforhodamine B assay; conditions: OVCAR-3, 48 h

Compound: Cc1ccc(-c2cs/c(=N\NC(=O)c3ccc(O)cc3)n2-c2c(C)cccc2C)cc1
- GI50 (MDA-MB-468): 12 µM
- LC50 (MDA-MB-468): > 100 µM
- TGI (MDA-MB-468; read-out: pTGI (converted)): > 100 µM
- GI50 (MDA-MB-435): 16.6 µM
- LC50 (MDA-MB-435): > 100 µM
- TGI (MDA-MB-435; read-out: pTGI (converted)): 85.1 µM
- GI50 (HOP-62): 23.4 µM
- LC50 (HOP-62): > 100 µM
- TGI (HOP-62; read-out: pTGI (converted)): 74.1 µM
- GI50 (HOP-92): 1.32 µM
- LC50 (HOP-92): > 100 µM
- TGI (HOP-92; read-out: pTGI (converted)): 26.3 µM
- growth at 10 µM (SK-MEL-5 [1]): 5.18%
- GI50 (HCT-116): 22.9 µM
- LC50 (HCT-116): > 100 µM
- TGI (HCT-116; read-out: pTGI (converted)): > 100 µM
- GI50 (HCC 2998): 15.5 µM
- LC50 (HCC 2998): > 100 µM
- TGI (HCC 2998; read-out: pTGI (converted)): 43.7 µM
- GI50 (BT-549): 21.9 µM
- LC50 (BT-549): > 100 µM
- TGI (BT-549; read-out: pTGI (converted)): > 100 µM
- GI50 (PC-3): 11 µM
- LC50 (PC-3): > 100 µM
- TGI (PC-3; read-out: pTGI (converted)): 91.2 µM
- GI50 (Malme-3M): 22.4 µM
- LC50 (Malme-3M): > 100 µM
- TGI (Malme-3M; read-out: pTGI (converted)): 85.1 µM
- GI50 (K562): 11.5 µM
- LC50 (K562): > 100 µM
- TGI (K562; read-out: pTGI (converted)): 79.4 µM
- GI50 (HT-29): 17.4 µM
- LC50 (HT-29): 83.2 µM
- TGI (HT-29; read-out: pTGI (converted)): 38 µM
- GI50 (SK-MEL-5 [2]): 14.5 µM
- LC50 (SK-MEL-5 [2]): 61.7 µM
- TGI (SK-MEL-5 [2]; read-out: pTGI (converted)): 30.2 µM
- GI50 (SK-MEL-2): 30.2 µM
- LC50 (SK-MEL-2): > 100 µM
- TGI (SK-MEL-2; read-out: pTGI (converted)): 95.5 µM
- GI50 (MCF7): 23.4 µM
- LC50 (MCF7): > 100 µM
- TGI (MCF7; read-out: pTGI (converted)): 95.5 µM
- GI50 (MDA-MB-231): 18.2 µM
- LC50 (MDA-MB-231): > 100 µM
- TGI (MDA-MB-231; read-out: pTGI (converted)): > 100 µM
- GI50 (TK-10): 19.1 µM
- LC50 (TK-10): > 100 µM
- TGI (TK-10; read-out: pTGI (converted)): 83.2 µM
- GI50 (UACC-257): 42.7 µM
- LC50 (UACC-257): > 100 µM
- TGI (UACC-257; read-out: pTGI (converted)): > 100 µM
- GI50 (HCT-15): 17 µM
- LC50 (concentration killing 50% of cells) (HCT-15): > 100 µM
- TGI (HCT-15; read-out: pTGI (converted)): > 100 µM
- GI50 (T47D): 12.9 µM
- LC50 (T47D): > 100 µM
- TGI (T47D; read-out: pTGI (converted)): 63.1 µM
- GI50 (U-251): 25.1 µM
- LC50 (U-251): > 100 µM
- TGI (U-251; read-out: pTGI (converted)): > 100 µM
- GI50 (SW-620): 28.8 µM
- LC50 (SW-620): > 100 µM
- TGI (SW-620; read-out: pTGI (converted)): > 100 µM
- GI50 (NCI-H23): 25.7 µM
- LC50 (NCI-H23): > 100 µM
- TGI (NCI-H23; read-out: pTGI (converted)): > 100 µM
- GI50 (NCI-H522): 20.9 µM
- LC50 (NCI-H522): > 100 µM
- TGI (NCI-H522; read-out: pTGI (converted)): > 100 µM
- GI50 (IGROV-1): 20 µM
- LC50 (IGROV-1): > 100 µM
- TGI (IGROV-1; read-out: pTGI (converted)): > 100 µM
- GI50 (RXF 393): 38 µM
- LC50 (RXF 393): > 100 µM
- TGI (RXF 393; read-out: pTGI (converted)): > 100 µM
- GI50 (ACHN): 20.9 µM
- LC50 (ACHN): > 100 µM
- TGI (ACHN; read-out: pTGI (converted)): > 100 µM
- GI50 (786-0): 22.4 µM
- LC50 (786-0): > 100 µM
- TGI (786-0; read-out: pTGI (converted)): > 100 µM
- GI50 (OVCAR-3): 17.8 µM
- LC50 (OVCAR-3): > 100 µM
- TGI (OVCAR-3; read-out: pTGI (converted)): 47.9 µM
